The record followed here is patent publication US4482486A, “Analogs of vasopressin” (Ceskoslovenska akademie ved, priority 1982, dated 1984).

What all share (type): in vivo
Assay [1] concerns rats. Nature of the assay: Galactogogic endocrine activity in rats. Particulars: rat. On the procedure: (§1) The endocrine biological activities (in I.U./mg--International Unit--see "Handbook of Experimental Pharmacology", Vol. XXIII: Neurohypophysical hormones and similar polypeptides (B. Berde, Ed), p. 131, Springer-Verlag,Berlin 1968) of the described compounds were determined in rats.

Assay [2] concerns anaesthesized rat. Nature of the assay: Antidiuretic activity, anaesthesized rat. The procedure: as §1
The subject of assay [3] is rats. Briefly: Uterotonic endocrine activity in rats. Particulars: rat. The procedure: as §1
Assay [4] deals with nonanaesthesized rat. Nature of the assay: Antidiuretic activity, nonanaesthesized rat. The note with it: percent of the effect of [8D-argine] deaminovasopressin at the level of threshold efficiency. On the procedure: as §1
b = nonanaesthesized rat Activity is expressed in percent of the effect o
[8D-argine] deaminovasopressin at the level of threshold efficiency

Assay [5] has as its system rats. Nature of the assay: Pressor endocrine activity in rats. The note with it: rat. The procedure:
as §1

`NC(=O)CC[C@@H]1NC(=O)[C@H](Cc2ccccc2)NC(=O)[C@H](Cc2ccc(O)cc2)NC(=O)[C@@H](N)CSSC[C@@H](C(=O)N2CCC[C@H]2C(=O)N[C@@H](CCCN=C(N)N)C(=O)NCC(N)=O)NC(=O)[C@H](CC(N)=O)NC1=O` [AVP, [8arginine] vasopressin, reference compound] registered a Galactogogic activity in assay [1] of 69 I.U./mg. In assay [2], the Antidiuretic activity a is 465 I.U./mg. In assay [3], this compound showed a Uterotonic activity of 17 I.U./mg. In assay [4], this compound displayed an Antidiuretic activity b of 20%. The compound further had a Pressor activity in assay [5] of 465 I.U./mg.
Turning to “Lactam of tyrosyl-phenylalanyl-glutaminyl-asparaginyl-S-(γ-carboxypropyl)cysteinyl-prolyl-D-arginine [Ia]”, the Antidiuretic activity a in assay [2] turned out to be 0.8 I.U./mg. The Uterotonic activity in assay [3] was 0.09 I.U./mg. In assay [4], this compound had an Antidiuretic activity b of 0.2%. In addition, the Pressor activity entry in assay [5] was “inhibition”.
“[8-Ornithine, 9-desglycinamide]vasopressin [Ic]”: the Galactogogic activity in assay [1] is on record as 0.02 I.U./mg. The compound also showed an Antidiuretic activity a in assay [2] of 0.3 I.U./mg. In assay [3], this compound returned a Uterotonic activity of 0.09 I.U./mg. The same compound yielded an Antidiuretic activity b in assay [4] of 0.1%. Besides, the Pressor activity in assay [5] came out at 0.2 I.U./mg.
Regarding “[8-D-Arginine, 9-desglycinamide] vasopressin [Ib]”, the Galactogogic activity in assay [1] is recorded as 0.12 I.U./mg. Besides, in assay [2], the Antidiuretic activity a came out at 4.5 I.U./mg. This compound returned a Uterotonic activity in assay [3] of 0.07 I.U./mg. Besides, the Antidiuretic activity b in assay [4] is given as 0.4%. The compound also displayed a Pressor activity in assay [5] of 0.2 I.U./mg.
